Test results as given in ChEMBL document CHEMBL3611978, “Synthesis and biological evaluation of novel 7-substituted 3-(4-phenoxyphenyl)thieno[3,2-c]pyridin-4-amines as potent Bruton's tyrosine kinase (BTK) inhibitors” (Bioorg Med Chem, 2015).

The compounds below were run against Tyrosine-protein kinase BTK (Homo sapiens, UniProt Q06187) (assay: Inhibition of BTK (unknown origin) after 1 hr by TR-FRET assay).
Tyrosine-protein kinase BTK, sequence (Q06187 whole entry): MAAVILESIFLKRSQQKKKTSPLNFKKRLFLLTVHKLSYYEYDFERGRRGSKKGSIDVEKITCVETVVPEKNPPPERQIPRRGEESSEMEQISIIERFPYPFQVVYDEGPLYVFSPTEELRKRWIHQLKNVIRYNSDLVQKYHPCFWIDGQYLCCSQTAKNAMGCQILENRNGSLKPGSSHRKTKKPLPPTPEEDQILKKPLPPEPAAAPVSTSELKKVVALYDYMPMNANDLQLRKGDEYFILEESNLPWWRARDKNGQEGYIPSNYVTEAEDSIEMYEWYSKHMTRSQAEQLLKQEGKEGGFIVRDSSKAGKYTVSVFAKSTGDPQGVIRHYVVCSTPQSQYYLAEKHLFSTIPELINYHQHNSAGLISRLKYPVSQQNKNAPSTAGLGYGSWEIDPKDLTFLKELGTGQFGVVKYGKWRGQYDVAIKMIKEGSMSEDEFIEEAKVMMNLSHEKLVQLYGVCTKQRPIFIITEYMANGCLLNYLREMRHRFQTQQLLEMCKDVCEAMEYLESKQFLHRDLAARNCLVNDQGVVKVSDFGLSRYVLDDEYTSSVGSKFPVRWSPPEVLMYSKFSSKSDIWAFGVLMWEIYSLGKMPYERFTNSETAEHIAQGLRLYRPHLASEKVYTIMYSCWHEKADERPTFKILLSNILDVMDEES

| SMILES | IC50 [µM] |
| --- | --- |
| CC(C)(C)OC(=O)N1C=C(c2cnc(N)c3c(-c4ccc(Oc5ccccc5)cc4)csc23)CCC1 | 2.87 |
| CC(C)(C)OC(=O)N1CC=C(c2cnc(N)c3c(-c4ccc(Oc5ccccc5)cc4)csc23)CC1 | 1.66 |
| Nc1ncc(C2CCNCC2)c2scc(-c3ccc(Oc4ccccc4)cc3)c12 | > 10 |
| CNC(=O)CN1C=C(c2cnc(N)c3c(-c4ccc(Oc5ccccc5)cc4)csc23)CCC1 | 0.456 |
| Nc1ncc(C2=CCNCC2)c2scc(-c3ccc(Oc4ccccc4)cc3)c12 | 0.854 |
| Nc1ncc(C2=CNCCC2)c2scc(-c3ccc(Oc4ccccc4)cc3)c12 | 3.6 |
| C=CC(=O)N1CCCC(c2cnc(N)c3c(-c4ccc(Oc5ccccc5)cc4)csc23)C1 (centres undefined) | 2.3 |
| C=CC(=O)n1cc(-c2cnc(N)c3c(-c4ccc(Oc5ccccc5)cc4)csc23)cn1 | 1.69 |
| Nc1ncc(C2CCCNC2)c2scc(-c3ccc(Oc4ccccc4)cc3)c12 (centres undefined) | > 10 |
| C=CC(=O)N1C=C(c2cnc(N)c3c(-c4ccc(Oc5ccccc5)cc4)csc23)CCC1 | 0.343 |

These reach a lower IC50. Values come first.

| IC50 [µM] | SMILES |
| --- | --- |
| 0.0078 | CC(=O)Cn1cc(-c2cnc(N)c3c(-c4ccc(Oc5ccccc5)cc4)csc23)cn1 |
| 0.0095 | Nc1ncc(-c2cnn(C3CCCNC3=O)c2)c2scc(-c3ccc(Oc4ccccc4)cc3)c12 (centres undefined) |
| 0.0122 | Nc1ncc(-c2cnn(CC(=O)N3CCCCC3)c2)c2scc(-c3ccc(Oc4ccccc4)cc3)c12 |
| 0.0549 | CS(=O)(=O)OC1CCCN(C(=O)CCn2cc(-c3cnc(N)c4c(-c5ccc(Oc6ccccc6)cc5)csc34)cn2)C1 (centres undefined) |
| 0.0074 | C#CCn1cc(-c2cnc(N)c3c(-c4ccc(Oc5ccccc5)cc4)csc23)cn1 |
| 0.0118 | Nc1ncc(-c2cnn(CC(=O)N3CCOCC3)c2)c2scc(-c3ccc(Oc4ccccc4)cc3)c12 |
| 0.0255 | CNC(=O)CCn1cc(-c2cnc(N)c3c(-c4ccc(Oc5ccccc5)cc4)csc23)cn1 |
| 0.0099 | C=CC(=O)NCCn1cc(-c2cnc(N)c3c(-c4ccc(Oc5ccccc5)cc4)csc23)cn1 |
| 0.183 | C=CC(=O)N1CC=C(c2cnc(N)c3c(-c4ccc(Oc5ccccc5)cc4)csc23)CC1 |
| 0.021 | Nc1ncc(-c2cnn(CCC(=O)O)c2)c2scc(-c3ccc(Oc4ccccc4)cc3)c12 |

What follows are compounds tested against Tyrosine-protein kinase JAK2 (Homo sapiens, UniProt O60674) (assay: Inhibition of JAK2 (unknown origin) after 1 hr by ELISA based assay).
Tyrosine-protein kinase JAK2, sequence (O60674 whole entry): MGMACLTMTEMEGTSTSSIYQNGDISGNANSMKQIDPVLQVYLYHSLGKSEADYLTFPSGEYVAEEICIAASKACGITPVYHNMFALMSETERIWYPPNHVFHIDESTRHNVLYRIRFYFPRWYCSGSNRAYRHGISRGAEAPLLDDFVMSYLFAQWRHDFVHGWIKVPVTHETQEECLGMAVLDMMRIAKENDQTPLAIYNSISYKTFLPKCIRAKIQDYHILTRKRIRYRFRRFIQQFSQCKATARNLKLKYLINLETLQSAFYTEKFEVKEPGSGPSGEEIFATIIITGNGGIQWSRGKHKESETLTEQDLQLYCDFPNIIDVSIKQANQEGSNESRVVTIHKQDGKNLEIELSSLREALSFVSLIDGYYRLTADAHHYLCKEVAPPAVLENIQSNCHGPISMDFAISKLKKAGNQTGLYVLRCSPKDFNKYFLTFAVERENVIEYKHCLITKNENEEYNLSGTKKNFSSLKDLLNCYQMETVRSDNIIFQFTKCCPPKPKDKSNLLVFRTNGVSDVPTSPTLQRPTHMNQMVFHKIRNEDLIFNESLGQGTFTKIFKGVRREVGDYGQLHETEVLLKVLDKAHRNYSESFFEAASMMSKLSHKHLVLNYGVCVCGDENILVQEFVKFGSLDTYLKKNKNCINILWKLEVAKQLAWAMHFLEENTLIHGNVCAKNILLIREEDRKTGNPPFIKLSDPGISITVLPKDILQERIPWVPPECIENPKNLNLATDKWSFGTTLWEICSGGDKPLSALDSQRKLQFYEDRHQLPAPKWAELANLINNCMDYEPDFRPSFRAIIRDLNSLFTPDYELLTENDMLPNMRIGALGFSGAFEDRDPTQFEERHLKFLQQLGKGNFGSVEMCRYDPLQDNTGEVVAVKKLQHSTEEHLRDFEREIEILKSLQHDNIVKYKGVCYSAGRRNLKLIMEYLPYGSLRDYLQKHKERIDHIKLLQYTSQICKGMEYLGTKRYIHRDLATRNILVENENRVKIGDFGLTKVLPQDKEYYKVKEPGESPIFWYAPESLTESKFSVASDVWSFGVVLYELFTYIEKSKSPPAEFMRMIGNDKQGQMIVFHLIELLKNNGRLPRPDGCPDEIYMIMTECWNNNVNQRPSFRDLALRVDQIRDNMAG

| IC50 [µM] | SMILES |
| --- | --- |
| 6.86 | Nc1ncc(-c2cnn(CC(=O)N3CCOCC3)c2)c2scc(-c3ccc(Oc4ccccc4)cc3)c12 |

These compounds were tested against T1, Tyrosine-protein kinase JAK3 (Homo sapiens, UniProt P52333) (assay: Inhibition of JAK3 (unknown origin) after 1 hr by ELISA based assay).
T1 sequence (P52333 whole entry): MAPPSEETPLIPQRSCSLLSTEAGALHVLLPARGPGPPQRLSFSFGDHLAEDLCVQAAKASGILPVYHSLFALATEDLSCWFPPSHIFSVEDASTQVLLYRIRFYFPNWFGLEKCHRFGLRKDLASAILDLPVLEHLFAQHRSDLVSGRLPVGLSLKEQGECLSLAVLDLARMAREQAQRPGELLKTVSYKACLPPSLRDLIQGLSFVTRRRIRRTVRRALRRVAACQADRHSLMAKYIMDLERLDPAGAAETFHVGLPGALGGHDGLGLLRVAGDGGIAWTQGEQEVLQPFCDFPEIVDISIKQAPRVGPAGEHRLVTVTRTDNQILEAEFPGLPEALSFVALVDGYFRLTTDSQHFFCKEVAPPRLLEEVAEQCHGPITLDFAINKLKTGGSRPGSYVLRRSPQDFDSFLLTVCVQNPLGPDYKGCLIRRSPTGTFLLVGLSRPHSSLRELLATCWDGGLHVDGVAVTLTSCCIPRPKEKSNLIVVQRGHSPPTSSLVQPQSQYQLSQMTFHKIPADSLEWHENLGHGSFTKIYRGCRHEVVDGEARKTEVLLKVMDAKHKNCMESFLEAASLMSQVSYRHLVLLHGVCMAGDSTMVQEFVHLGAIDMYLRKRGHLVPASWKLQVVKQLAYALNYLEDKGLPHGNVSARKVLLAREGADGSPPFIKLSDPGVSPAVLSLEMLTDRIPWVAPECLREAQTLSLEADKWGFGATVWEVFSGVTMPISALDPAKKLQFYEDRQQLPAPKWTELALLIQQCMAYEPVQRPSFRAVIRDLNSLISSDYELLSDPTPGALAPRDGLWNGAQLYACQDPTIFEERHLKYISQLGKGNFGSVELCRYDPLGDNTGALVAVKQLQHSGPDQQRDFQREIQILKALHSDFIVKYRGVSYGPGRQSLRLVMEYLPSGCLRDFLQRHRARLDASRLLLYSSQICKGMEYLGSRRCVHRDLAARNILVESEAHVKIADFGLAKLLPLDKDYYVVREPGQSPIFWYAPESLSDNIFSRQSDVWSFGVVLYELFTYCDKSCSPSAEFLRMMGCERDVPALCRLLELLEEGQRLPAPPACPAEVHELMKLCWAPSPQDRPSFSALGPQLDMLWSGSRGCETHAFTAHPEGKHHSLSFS

| IC50 [µM] | SMILES |
| --- | --- |
| 3.07 | Nc1ncc(-c2cnn(CC(=O)N3CCOCC3)c2)c2scc(-c3ccc(Oc4ccccc4)cc3)c12 |

Each compound was assayed against Hepatocyte growth factor receptor (Homo sapiens, UniProt P08581) (assay: Inhibition of c-MET (unknown origin) after 1 hr by ELISA based assay).
Hepatocyte growth factor receptor, sequence (P08581 whole entry): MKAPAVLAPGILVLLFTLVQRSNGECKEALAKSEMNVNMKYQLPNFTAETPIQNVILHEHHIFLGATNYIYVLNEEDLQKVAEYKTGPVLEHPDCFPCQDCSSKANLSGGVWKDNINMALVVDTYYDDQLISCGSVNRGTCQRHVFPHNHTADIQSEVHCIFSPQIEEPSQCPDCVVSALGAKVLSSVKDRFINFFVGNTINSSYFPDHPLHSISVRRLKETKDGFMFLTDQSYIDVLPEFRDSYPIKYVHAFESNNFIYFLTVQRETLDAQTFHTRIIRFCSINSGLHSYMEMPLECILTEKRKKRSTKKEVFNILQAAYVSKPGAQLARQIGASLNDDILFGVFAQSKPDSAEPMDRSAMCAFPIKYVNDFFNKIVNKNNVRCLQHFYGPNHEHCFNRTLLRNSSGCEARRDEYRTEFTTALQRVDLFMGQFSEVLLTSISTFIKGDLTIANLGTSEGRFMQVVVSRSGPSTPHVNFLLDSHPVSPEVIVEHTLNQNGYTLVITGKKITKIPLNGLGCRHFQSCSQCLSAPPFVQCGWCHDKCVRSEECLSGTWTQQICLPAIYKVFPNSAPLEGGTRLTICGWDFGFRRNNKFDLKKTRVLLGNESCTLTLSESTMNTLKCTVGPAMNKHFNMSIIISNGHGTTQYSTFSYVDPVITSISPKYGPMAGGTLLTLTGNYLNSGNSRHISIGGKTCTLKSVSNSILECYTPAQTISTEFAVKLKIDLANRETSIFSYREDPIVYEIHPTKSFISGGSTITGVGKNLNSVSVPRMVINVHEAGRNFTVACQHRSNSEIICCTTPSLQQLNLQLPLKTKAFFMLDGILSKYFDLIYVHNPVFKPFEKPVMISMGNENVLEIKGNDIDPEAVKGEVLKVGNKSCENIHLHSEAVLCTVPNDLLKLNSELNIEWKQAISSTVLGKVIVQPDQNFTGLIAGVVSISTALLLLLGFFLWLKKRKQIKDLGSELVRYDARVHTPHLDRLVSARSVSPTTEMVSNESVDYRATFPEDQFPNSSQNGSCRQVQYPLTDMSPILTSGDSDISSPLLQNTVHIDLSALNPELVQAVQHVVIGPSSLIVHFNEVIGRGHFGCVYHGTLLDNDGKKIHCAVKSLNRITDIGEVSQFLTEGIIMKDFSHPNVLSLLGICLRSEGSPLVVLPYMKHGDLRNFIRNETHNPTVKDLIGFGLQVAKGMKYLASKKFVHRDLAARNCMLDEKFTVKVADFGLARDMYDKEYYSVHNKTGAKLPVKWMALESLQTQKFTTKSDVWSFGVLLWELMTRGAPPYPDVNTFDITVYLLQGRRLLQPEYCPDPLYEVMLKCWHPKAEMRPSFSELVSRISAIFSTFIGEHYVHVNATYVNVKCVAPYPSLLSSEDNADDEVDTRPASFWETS

| IC50 [µM] | SMILES |
| --- | --- |
| 2.43 | Nc1ncc(-c2cnn(CC(=O)N3CCOCC3)c2)c2scc(-c3ccc(Oc4ccccc4)cc3)c12 |

These compounds were tested against Vascular endothelial growth factor receptor 2 (Homo sapiens, UniProt P35968) (assay: Inhibition of KDR (unknown origin) after 1 hr by ELISA based assay).
Vascular endothelial growth factor receptor 2, sequence (P35968 whole entry): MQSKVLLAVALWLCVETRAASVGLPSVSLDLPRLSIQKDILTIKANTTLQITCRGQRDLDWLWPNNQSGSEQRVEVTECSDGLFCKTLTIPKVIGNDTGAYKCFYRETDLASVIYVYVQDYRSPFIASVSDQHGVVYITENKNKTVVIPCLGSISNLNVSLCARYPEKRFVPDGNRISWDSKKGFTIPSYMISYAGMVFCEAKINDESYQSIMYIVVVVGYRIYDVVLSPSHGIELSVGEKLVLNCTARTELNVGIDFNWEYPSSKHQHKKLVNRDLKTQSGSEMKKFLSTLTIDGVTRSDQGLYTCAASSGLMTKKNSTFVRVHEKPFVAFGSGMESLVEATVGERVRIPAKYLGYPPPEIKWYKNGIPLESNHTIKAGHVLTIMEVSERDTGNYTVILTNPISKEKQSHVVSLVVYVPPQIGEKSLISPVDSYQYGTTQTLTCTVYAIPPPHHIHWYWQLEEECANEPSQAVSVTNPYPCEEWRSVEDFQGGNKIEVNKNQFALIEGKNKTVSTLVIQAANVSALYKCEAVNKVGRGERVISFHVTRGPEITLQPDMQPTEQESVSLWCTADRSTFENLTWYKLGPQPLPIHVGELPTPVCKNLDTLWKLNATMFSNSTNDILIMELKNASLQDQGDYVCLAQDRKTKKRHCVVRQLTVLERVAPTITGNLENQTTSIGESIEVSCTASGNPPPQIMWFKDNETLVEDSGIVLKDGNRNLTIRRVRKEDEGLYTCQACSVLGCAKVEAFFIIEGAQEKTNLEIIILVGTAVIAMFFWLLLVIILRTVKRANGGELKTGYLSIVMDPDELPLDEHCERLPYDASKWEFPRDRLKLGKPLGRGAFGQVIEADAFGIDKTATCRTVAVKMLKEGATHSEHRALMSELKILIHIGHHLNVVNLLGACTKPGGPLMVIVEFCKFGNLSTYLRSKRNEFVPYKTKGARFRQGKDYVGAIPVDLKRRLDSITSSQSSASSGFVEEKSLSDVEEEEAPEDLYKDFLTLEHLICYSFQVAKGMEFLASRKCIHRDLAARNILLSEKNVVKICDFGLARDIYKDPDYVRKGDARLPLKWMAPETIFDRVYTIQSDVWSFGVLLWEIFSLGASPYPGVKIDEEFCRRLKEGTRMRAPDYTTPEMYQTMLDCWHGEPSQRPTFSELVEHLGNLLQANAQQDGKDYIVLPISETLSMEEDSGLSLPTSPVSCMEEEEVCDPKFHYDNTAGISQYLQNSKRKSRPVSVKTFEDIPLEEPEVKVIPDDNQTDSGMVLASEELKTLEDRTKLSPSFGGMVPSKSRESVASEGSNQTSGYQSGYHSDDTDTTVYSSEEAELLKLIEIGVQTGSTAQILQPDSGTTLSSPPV

| IC50 [µM] | SMILES |
| --- | --- |
| 0.191 | Nc1ncc(-c2cnn(CC(=O)N3CCOCC3)c2)c2scc(-c3ccc(Oc4ccccc4)cc3)c12 |
